These are literature values, as cited in patent publication US11224576B2, “Process for the production of an abuse-proofed dosage form” (GRÜNENTHAL GMBH, priority 2004, dated 2022).

In the case of `COc1cccc(C2(O)CCCCC2CN(C)C)c1` (stereo not shown) [Tramadol, tramadol], the water solubility entry is “excellent”.
